The target in one series is T1, 5-HT3 receptor (Rattus norvegicus, UniProt P35563).
T1 construct: from tissue
T1 sequence (P35563 24-483): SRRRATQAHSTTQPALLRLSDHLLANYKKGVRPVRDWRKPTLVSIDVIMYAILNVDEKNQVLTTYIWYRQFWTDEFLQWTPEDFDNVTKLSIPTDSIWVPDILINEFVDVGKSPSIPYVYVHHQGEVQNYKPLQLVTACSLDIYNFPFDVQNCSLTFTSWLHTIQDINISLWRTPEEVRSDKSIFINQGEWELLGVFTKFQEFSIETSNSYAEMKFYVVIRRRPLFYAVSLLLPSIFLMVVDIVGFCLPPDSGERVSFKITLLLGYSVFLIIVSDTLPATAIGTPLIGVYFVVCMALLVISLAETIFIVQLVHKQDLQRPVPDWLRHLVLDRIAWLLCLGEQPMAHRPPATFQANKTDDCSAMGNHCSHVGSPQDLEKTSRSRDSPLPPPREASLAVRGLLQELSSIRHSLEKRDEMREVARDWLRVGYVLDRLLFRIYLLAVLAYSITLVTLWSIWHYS
Kind of series: Suppression of 5-HT-induced reflex bradycardia in urethane-anesthetised rats (antagonistic activity against 5-HT3 receptor in vivo). Set-up: species or system Male Wister rat. Conditions: intravenous administration, suppression of reflex bradycardia generated by i.v. 5-HT, read-out: IC50 i.v. The method, then:
Male Wister rat was urethane-anesthetised and fixed. Cannulas were inserted in the carotoid artery and in the thigh vein as used for recording of blood pressure and heart beat, and for the administration of the test compounds, respectively.
Several doses of a compound of the present invention were administered from the vein. 5-HT was administered rapidly to the vein, 2 mins. after insertion of cannulas. The suppression effect of the compounds were confirmed by the measurement of the reflex bradycardia generated (Nature 316, 126 (1985)).

Series [1] in a line: Acute toxicity by intravenous administration. The conditions noted are these: mouse, in vivo; intravenous administration in mice. The method, then:
Tests confirmed that the toxicity of the compounds of the present invention is very low. Therefore, the compounds of the present invention may be considered to be sufficiently safe and suitable for pharmaceutical use.
For example, the value of acute toxicity (LD50) of the compound prepared as in Example 1 was 50 mg/kg animal body weight by intravenous administration in mice.

Take `CNc1cc2ccn(Cc3nc[nH]c3C)c(=O)c2cc1Cl.Cl.Cl` [1(d), 6-methylamino-7-chloro-2-(5-methyl-imidazol-4-ylmethyl)-1,2-dihydro-isoquinolin-1-one dihydrochloride]: the ED50 on 5-HT3 receptor came to 0.49 mg/kg. Same read-out and setting: next, `CNc1cc(Cl)cc2c(=O)n(Cc3nc[nH]c3C)ccc12.Cl.Cl` [1(e), 5-methylamino-7-chloro-2-(5-methyl-imidazol-4-ylmethyl)-1,2-dihydro-isoquinolin-1-one dihydrochloride]: 1.44 mg/kg.

Take `CC(=O)Nc1cc2ccn(Cc3nc[nH]c3C)c(=O)c2cc1Cl` [Example 1(a)]: the ED50 at 5-HT3 receptor turned out to be 0.99 mg/kg. Take `Cc1[nH]cnc1Cn1ccc2cc(N)c(Cl)cc2c1=O.Cl.Cl` [Example 1, 6-amino-7-chloro-2-(5-methylimidazol-4-ylmethyl)-1,2-dihydroisoquinolin-1-one dihydrochloride]: the LD50 (usually the dose at which mortality reaches 50%) in series [1] came to 50 mg/kg. Besides, the ED50 on 5-HT3 receptor is 0.39 mg/kg.
